Data as given in ChEMBL document CHEMBL4196002, “Design, synthesis, mechanistic and histopathological studies of small-molecules of novel indole-2-carboxamides and pyrazino[1,2-a]indol-1(2H)-ones as potential anticancer agents effecting the reactive oxygen species production” (Eur J Med Chem, 2018).

Experiments:
[1] = Antioxidant activity assessed as DPPH radical scavenging activity at 100 uM after 30 mins dark incubation; type: functional
[2] = Antioxidant activity assessed as DPPH radical scavenging activity at 50 uM after 30 mins dark incubation; type: functional
[3] = Antioxidant activity assessed as DPPH radical scavenging activity at 10 uM after 30 mins dark incubation; type: functional
[4] = Cytotoxicity against human MCF10A cells assessed as cell viability at 50 uM after 96 hrs by MTT assay relative to control; type: cell-based, MCF-10A; settings: read-out: Activity
[5] = Inhibition of ROS generation in human PMN at 0.78 ug/ml after 50 mins by luminol-based chemiluminescence assay relative to control; type: functional
[6] = Inhibition of ROS generation in human PMN at 1.56 ug/ml after 50 mins by luminol-based chemiluminescence assay relative to control; type: functional
PC-3 = test: Antiproliferative activity human PC3 cells after 48 hrs by propidium iodide staining-based fluorescence assay; type: functional, cell-based; settings: PC-3, 48 h
A549 = test: Antiproliferative activity human A549 cells after 48 hrs by propidium iodide staining-based fluorescence assay; type: functional, cell-based; settings: A549, 48 h
MCF7 = test: Antiproliferative activity human MCF7 cells after 48 hrs by propidium iodide staining-based fluorescence assay; type: functional, cell-based; settings: MCF7, 48 h
MIA PaCa-2 = test: Antiproliferative activity human MIAPaCa2 cells after 48 hrs by propidium iodide staining-based fluorescence assay; type: functional, cell-based; settings: MIA PaCa-2, 48 h
HT-29 = test: Antiproliferative activity human HT-29 cells after 48 hrs by propidium iodide staining-based fluorescence assay; type: functional, cell-based; settings: HT-29, 48 h
Tubulin (Homo sapiens) = Tubulin (Homo sapiens) (UniProt P68371+Q9H4B7+P0DPH7+P68366+Q13509+Q71U36+P04350+Q3ZCM7+P07437+P68363+Q9BQE3+Q6PEY2+Q13885+Q9BVA1+Q9BUF5); test: Inhibition of tubulin (unknown origin) polymerization assessed as tubulin assembly rate by fluorescence assay; type: protein-complex assay
[7] = target: Epidermal growth factor receptor (Homo sapiens, UniProt P00533); test: Inhibition of His6-tagged EGFR (unknown origin) cytoplasmic domain expressed in baculovirus infected Sf9 insect cells after 10 mins followed by addition of ATP-MgCl2 and measured after 1 hr by time-resolved fluorometric analysis
Chain of Epidermal growth factor receptor (P00533 whole entry, the tested form may be a part): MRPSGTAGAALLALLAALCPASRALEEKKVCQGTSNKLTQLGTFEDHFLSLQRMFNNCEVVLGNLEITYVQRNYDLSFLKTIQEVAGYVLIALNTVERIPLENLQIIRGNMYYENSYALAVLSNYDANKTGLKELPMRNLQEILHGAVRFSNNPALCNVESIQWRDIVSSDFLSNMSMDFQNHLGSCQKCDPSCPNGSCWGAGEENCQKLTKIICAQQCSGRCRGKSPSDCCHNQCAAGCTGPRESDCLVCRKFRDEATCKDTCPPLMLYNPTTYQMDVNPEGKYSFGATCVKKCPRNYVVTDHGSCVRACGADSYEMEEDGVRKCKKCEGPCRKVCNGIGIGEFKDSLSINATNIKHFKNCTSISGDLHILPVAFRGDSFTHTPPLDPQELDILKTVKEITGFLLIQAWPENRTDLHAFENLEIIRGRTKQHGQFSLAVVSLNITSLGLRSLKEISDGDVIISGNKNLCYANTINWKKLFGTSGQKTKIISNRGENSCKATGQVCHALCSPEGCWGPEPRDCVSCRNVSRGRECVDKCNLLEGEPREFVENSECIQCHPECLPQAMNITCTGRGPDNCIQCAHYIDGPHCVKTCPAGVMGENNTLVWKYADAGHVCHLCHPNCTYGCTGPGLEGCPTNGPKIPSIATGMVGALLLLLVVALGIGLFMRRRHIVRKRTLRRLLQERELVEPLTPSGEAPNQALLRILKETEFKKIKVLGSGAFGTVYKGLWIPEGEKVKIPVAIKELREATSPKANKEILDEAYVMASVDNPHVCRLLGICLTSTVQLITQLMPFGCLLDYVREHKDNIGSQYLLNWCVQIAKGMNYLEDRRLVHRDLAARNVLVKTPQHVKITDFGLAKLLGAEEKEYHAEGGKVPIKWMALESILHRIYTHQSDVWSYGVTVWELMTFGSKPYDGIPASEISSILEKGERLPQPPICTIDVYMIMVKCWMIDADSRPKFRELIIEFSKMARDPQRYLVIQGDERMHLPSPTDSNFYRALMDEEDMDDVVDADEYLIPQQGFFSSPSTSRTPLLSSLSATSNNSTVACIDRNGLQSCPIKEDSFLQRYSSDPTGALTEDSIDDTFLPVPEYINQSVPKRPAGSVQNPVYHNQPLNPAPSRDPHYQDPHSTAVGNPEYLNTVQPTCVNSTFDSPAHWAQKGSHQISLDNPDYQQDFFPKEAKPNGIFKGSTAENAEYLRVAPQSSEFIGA

[8] = target: Serine/threonine-protein kinase B-raf (Mus musculus, UniProt P28028, V600E); test: Inhibition of mouse full-length GST-tagged BRAF V600E mutant using recombinant human full length N-terminal His-tagged MEK1 as substrate preincubated for 60 mins followed by substrate addition and measured after 25 mins by ELISA
Chain of Serine/threonine-protein kinase B-raf (P28028 whole entry, looked up, stated change not applied): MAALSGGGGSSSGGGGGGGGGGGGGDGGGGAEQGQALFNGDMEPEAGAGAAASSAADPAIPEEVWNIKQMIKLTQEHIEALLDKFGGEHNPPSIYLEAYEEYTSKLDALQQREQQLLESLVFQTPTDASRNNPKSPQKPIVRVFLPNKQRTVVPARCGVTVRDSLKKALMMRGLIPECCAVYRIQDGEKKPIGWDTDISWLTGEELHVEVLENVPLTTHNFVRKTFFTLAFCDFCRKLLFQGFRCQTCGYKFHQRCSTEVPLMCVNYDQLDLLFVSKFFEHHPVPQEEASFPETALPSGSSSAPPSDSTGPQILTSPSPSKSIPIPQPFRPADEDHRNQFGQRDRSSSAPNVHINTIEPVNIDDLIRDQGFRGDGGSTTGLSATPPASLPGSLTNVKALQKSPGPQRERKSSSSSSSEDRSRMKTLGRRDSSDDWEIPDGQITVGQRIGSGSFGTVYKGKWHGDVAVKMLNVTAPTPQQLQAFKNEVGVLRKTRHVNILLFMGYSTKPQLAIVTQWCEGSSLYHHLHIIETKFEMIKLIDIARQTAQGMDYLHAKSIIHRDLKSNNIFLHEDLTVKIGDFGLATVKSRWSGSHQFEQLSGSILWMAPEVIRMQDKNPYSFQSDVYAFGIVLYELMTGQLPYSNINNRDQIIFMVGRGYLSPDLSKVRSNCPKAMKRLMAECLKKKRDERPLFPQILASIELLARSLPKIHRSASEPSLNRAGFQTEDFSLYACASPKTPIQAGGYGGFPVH

[9] = Inhibition of ROS generation in human PMN at 3.13 ug/ml after 50 mins by luminol-based chemiluminescence assay relative to control; type: functional
[10] = Inhibition of ROS generation in human PMN at 6.25 ug/ml after 50 mins by luminol-based chemiluminescence assay relative to control; type: functional
[11] = Inhibition of ROS generation in human PMN at 12.5 ug/ml after 50 mins by luminol-based chemiluminescence assay relative to control; type: functional
[12] = (§1) Inhibition of ROS generation in human PMN after 50 mins by luminol-based chemiluminescence assay; type: functional
Homo sapiens = species: Homo sapiens; test: as §1; type: functional

Row | IC50 (PC-3) | IC50 (A549) | IC50 (MCF7) | IC50 (MIA PaCa-2) | IC50 (HT-29) | Activity (Tubulin (Homo sapiens)) | IC50 [7] | IC50 [8] | IC50 [12] | SMILES | Activity [1] | Activity [2] | Activity [3] | viability at 96 h, 50 µM [4] | inhibition at 0.78 µg/mL [5] | inhibition at 1.56 µg/mL [6] | inhibition at 3.13 µg/mL [9] | inhibition at 6.25 µg/mL [10] | inhibition at 12.5 µg/mL [11] | inhibition (Homo sapiens)
1 | – | – | – | – | – | – | – | – | – | Cc1c(C)c2c(c(C)c1O)CCC(C)(C(=O)O)O2 (stereo not drawn) | 95.2% | 82.5% | 77.6% | – | – | – | – | – | – | –
2 | 1.1 µM | 1.5 µM | 1.1 µM | 1.3 µM | 1.9 µM | 2650 a.u. | 0.9 µM | 1 µM | 9.7 µM | CCc1c(C(=O)NC(CO)Cc2ccccc2)[nH]c2ccc(C(F)(F)F)cc12 (stereo not drawn) | 78% | 61.7% | 43.4% | 80% | 26% | 31% | 47% | 62% | 79% | Dose-dependent effect
3 | 2.5 µM | 2.9 µM | 2.8 µM | 2.6 µM | 2.9 µM | 2570 a.u. | 0.5 µM | 3.7 µM | 5.91 µM | Cc1c(C(=O)NC(CO)Cc2ccccc2)[nH]c2ccc(Cl)cc12 (stereo not drawn) | 86.4% | 72.7% | 55.4% | 90% | 39% | 45% | 58% | 65% | 74% | Dose-dependent effect
4 | 5.1 µM | 6 µM | 7.5 µM | 8.3 µM | 7.7 µM | – | – | – | 13.8 µM | CCc1c2cc(Cl)ccc2n2cc(Cc3ccccc3)[nH]c(=O)c12 | 71.6% | 59% | 40.8% | 89% | 14% | 27% | 37% | 60% | 72% | Dose-dependent effect
5 | 16.5 µM | 15.4 µM | 16.4 µM | 18.6 µM | 16.9 µM | – | – | – | 23.1 µM | O=C(NC(CO)Cc1ccccc1)c1cc2ccccc2[nH]1 (stereo not drawn) | 64.6% | 50.1% | 24.8% | 96% | 9% | 21% | 32% | 47% | 64% | Dose-dependent effect
6 | 2.4 µM | 1.9 µM | 1.4 µM | 2.6 µM | 2.4 µM | 2420 a.u. | 0.8 µM | 4.8 µM | 11.3 µM | O=C(NC(CO)Cc1ccccc1)c1cc2cc(Cl)ccc2[nH]1 (stereo not drawn) | 77.5% | 61.2% | 50.2% | 89% | 25% | 33% | 48% | 60% | 77% | Dose-dependent effect
7 | 17.8 µM | 29.5 µM | 35.4 µM | 36 µM | 34.7 µM | – | – | – | 11.8 µM | CCc1c(C(=O)NC(CO)Cc2ccc(Cl)cc2)[nH]c2ccc(Cl)cc12 (stereo not drawn) | 79.9% | 59.3% | 41.4% | 92% | 22% | 28% | 43% | 58% | 74% | Dose-dependent effect
8 | 15.8 µM | 27.9 µM | 26.5 µM | 33.7 µM | 27.8 µM | – | – | – | 7.77 µM | CCc1c2cc(Cl)ccc2n2cc(Cc3ccc(Cl)cc3)[nH]c(=O)c12 | 84.5% | 70.1% | 50.4% | 90% | 25% | 37% | 52% | 68% | 83% | Dose-dependent effect
9 | 5.9 µM | 4.8 µM | 4.7 µM | 5.5 µM | 6.5 µM | – | – | – | 10.6 µM | CCc1c(C(=O)NC(CO)Cc2ccccc2)[nH]c2ccc(Br)cc12 (stereo not drawn) | 78.5% | 67.4% | 49.2% | 85% | 19% | 31% | 45% | 55% | 67% | Dose-dependent effect
10 | 1 µM | 1.4 µM | 0.9 µM | 1.1 µM | 0.9 µM | 1920 a.u. | 3.9 µM | 0.9 µM | 6.53 µM | CCc1c2cc(C(F)(F)F)ccc2n2cc(Cc3ccccc3)[nH]c(=O)c12 | 84.4% | 72.9% | 52.2% | 79% | 31% | 42% | 56% | 72% | 89% | Dose-dependent effect
11 | 3.4 µM | 4.5 µM | 3.6 µM | 4.6 µM | 4.8 µM | – | – | – | 6.44 µM | CCc1c2cc(Br)ccc2n2cc(Cc3ccccc3)[nH]c(=O)c12 | 82.4% | 73.9% | 54.5% | 82% | 25% | 44% | 52% | 61% | 70% | Dose-dependent effect
12 | 13.4 µM | 14.7 µM | 13.6 µM | 13.8 µM | 13.8 µM | – | – | – | 19 µM | O=c1[nH]c(Cc2ccccc2)cn2c1cc1ccccc12 | 65.9% | 52.4% | 29.3% | 92% | 14% | 27% | 40% | 51% | 68% | Dose-dependent effect
13 | – | – | – | – | – | – | – | – | 9.78 µM | CC(=O)Oc1ccccc1C(=O)O [ASPIRIN] | – | – | – | – | 33% | 46% | 63% | 85% | 92% | –
14 | 8.9 µM | 11.4 µM | 12.9 µM | 12.5 µM | 12.2 µM | – | – | – | 13 µM | CCc1c(C(=O)NC(CO)Cc2ccccc2)[nH]c2ccc(Cl)cc12 (stereo not drawn) | 70.2% | 58.7% | 39.9% | 87% | 20% | 31% | 42% | 55% | 68% | Dose-dependent effect
